Assay results published in US9072734B2, “Quaternary ammonium salt compounds” (Teijin Pharma Limited, priority 2009, dated 2015).
Where a name gives a salt, the structure may show the parent alone.

Key:
[1] = target: T1, human M3 muscarinic receptor (Homo sapiens, UniProt P20309); test: Inhibitory effect on methacholine-induced calcium influx, FLIPR assay, CHO-K1 cells stably expressing the human M3 muscarinic receptor; assay type: cell-based; conditions: inhibition of calcium influx induced by methacholine
T1 construct: expressed in transfected cells; host or cells: CHO-K1
Summary of the method: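 Dye-loaded hM3 CHO-K1 cells were preincubated 180 s with compound solutions prepared at 10 two-fold concentrations (0.01–1000 nM). A 30 nM methacholine solution was then added. Fluorescence was traced for 170 s; max−min signal gave % inhibition against agonist and no-agonist controls, and IC50 came from a four-parameter logistic fit.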

[2] = target: T2, human β2 adrenergic receptor (Homo sapiens, UniProt P07550); test: Whole-cell cAMP Flashplate assay using CHO-K1 cells stably expressing human β2 adrenergic receptor; assay type: cell-based; conditions: cAMP production
T2 construct: expressed in transfected cells; host or cells: CHO-K1
T2 sequence (P07550 whole entry): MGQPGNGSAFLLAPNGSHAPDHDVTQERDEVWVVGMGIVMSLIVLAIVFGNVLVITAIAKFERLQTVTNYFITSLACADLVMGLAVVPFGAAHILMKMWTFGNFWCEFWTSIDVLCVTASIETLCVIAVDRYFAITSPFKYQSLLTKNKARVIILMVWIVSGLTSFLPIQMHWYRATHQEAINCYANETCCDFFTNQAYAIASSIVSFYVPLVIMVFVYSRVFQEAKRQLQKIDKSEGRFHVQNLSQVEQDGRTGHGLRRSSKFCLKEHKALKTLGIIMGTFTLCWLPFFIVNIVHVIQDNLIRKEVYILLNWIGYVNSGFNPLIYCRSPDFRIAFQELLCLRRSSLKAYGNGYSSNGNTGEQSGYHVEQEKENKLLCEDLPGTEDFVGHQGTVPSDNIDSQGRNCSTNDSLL

T1 sequence (P20309 whole entry): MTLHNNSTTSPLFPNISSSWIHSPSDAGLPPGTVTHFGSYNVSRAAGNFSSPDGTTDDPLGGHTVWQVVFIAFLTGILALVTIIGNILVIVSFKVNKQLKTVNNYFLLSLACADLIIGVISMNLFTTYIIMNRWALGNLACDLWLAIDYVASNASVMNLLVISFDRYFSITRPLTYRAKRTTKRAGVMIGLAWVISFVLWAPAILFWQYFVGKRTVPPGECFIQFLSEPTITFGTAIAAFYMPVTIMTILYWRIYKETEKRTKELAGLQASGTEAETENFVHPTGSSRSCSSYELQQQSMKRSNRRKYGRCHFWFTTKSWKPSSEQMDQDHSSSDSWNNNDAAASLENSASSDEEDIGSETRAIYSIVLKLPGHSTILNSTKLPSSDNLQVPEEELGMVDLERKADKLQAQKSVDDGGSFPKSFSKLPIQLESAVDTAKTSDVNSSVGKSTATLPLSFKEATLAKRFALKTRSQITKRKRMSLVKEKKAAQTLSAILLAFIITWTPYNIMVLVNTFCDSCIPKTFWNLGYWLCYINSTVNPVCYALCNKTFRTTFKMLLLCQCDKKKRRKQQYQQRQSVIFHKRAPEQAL

Row | SMILES | IC50 [1] | EC50 [2]
1 | C[N+]1(C)[C@@H]2CC(OC(=O)Nc3cc(CCCCC(=O)Nc4ccc(CNC[C@H](O)c5ccc(O)c6[nH]c(=O)ccc56)cc4)ccc3-c3ccccc3)C[C@H]1[C@@H]1O[C@@H]12 (stereo partly drawn) [Example 50, (1R,2R,4S,5S,7S)-7-({[5-(4-{[4-({[(2R)-2-hydroxy-2-(8-hydroxy-2-oxo-1,2-dihydroquinolin-5-yl)ethyl]amino}methyl)phenyl]carbamoyl}butyl)-2-phenylphenyl]carbamoyl}oxy)-9,9-dimethyl-3-oxa-9-azatricyclo[3.3.1.0^2,4]nonan-9-ium trifluoroacetate] | 27.6 nM | 1.7 nM
2 | COc1cc(NC(=O)CCCCc2ccc(-c3ccccc3)c(NC(=O)OC3C[C@@H]4[C@H]5O[C@H]5[C@H](C3)[N+]4(C)C)c2)c(Cl)cc1CNC[C@H](O)c1ccc(O)c2[nH]c(=O)ccc12 (stereo partly drawn) [Example 52, (1R,2R,4S,5S,7S)-7-({[5-(4-{[2-chloro-4-({[(2R)-2-hydroxy-2-(8-hydroxy-2-oxo-1,2-dihydroquinolin-5-yl)ethyl]amino}methyl)-5-methoxyphenyl]carbamoyl}butyl)-2-phenylphenyl]carbamoyl}oxy)-9,9-dimethyl-3-oxa-9-azatricyclo[3.3.1.0^2,4]nonan-9-ium trifluoro acetate] | 32.8 nM | 0.4 nM
3 | C[N+]1(C)[C@@H]2CC(OC(=O)Nc3ccc(CCCC(=O)Nc4ccc(CNC[C@H](O)c5ccc(O)c6[nH]c(=O)ccc56)cc4)cc3-c3ccccc3)C[C@H]1[C@@H]1O[C@@H]12 (stereo partly drawn) [Example 53, (1R,2R,4S,5S,7S)-7-({[4-(3-{[4-({[(2R)-2-hydroxy-2-(8-hydroxy-2-oxo-1,2-dihydroquinolin-5-yl)ethyl]amino}methyl)phenyl]carbamoyl}propyl)-2-phenylphenyl]carbamoyl}oxy)-9,9-dimethyl-3-oxa-9-azatricyclo[3.3.1.0^2,4]nonan-9-ium trifluoroacetate] | 53.7 nM | 0.6 nM
4 | C[N+]1(C)CCC(OC(=O)Nc2ccc(CCCC(=O)Nc3ccc(CNC[C@H](O)c4ccc(O)c5[nH]c(=O)ccc45)cc3)cc2-c2ccccc2)CC1 [Example 54, 4-({[4-(3-{[4-({[(2R)-2-hydroxy-2-(8-hydroxy-2-oxo-1,2-dihydroquinolin-5-yl)ethyl]amino}methyl)phenyl]carbamoyl}propyl)-2-phenylphenyl]carbamoyl}oxy)-1,1-dimethylpiperidin-1-ium trifluoroacetate] | 20.9 nM | 0.9 nM
5 | COc1cc(NC(=O)CCCc2ccc(NC(=O)O[C@@H]3C[C@@H]4[C@H]5O[C@H]5[C@H](C3)[N+]4(C)C)c(-c3ccccc3)c2)c(Cl)cc1CNC[C@H](O)c1ccc(O)c2[nH]c(=O)ccc12 [Example 55, (1R,2R,4S,5S,7S)-7-({[4-(3-{[2-chloro-4-({[(2R)-2-hydroxy-2-(8-hydroxy-2-oxo-1,2-dihydroquinolin-5-yl)ethyl]amino}methyl)-5-methoxyphenyl]carbamoyl}propyl)-2-phenylphenyl]carbamoyl}oxy)-9,9-dimethyl-3-oxa-9-azatricyclo[3.3.1.0^2,4]nonan-9-ium trifluoroacetate] | 51.8 nM | 0.2 nM
6 | C[N+]1(C)[C@@H]2C[C@@H](OC(=O)Nc3ccc(CCCC(=O)Nc4ccc5cc(CNC[C@H](O)c6ccc(O)c7[nH]c(=O)ccc67)ccc5c4)cc3-c3ccccc3)C[C@H]1[C@@H]1O[C@@H]12 [Example 56, (1R,2R,4S,5S,7S)-7-({[4-(3-{[6-({[(2R)-2-hydroxy-2-(8-hydroxy-2-oxo-1,2-dihydroquinolin-5-yl)ethyl]amino}methyl)naphthalen-2-yl]carbamoyl}propyl)-2-phenylphenyl]carbamoyl}oxy)-9,9-dimethyl-3-oxa-9-azatricyclo[3.3.1.0^2,4]nonan-9-ium trifluoroacetate] | 64.1 nM | 0.9 nM
7 | C[N+]1(C)CCC(OC(=O)Nc2cc(OCCCCCCCCNC[C@H](O)c3ccc(O)c4[nH]c(=O)ccc34)ccc2-c2ccccc2)CC1 [Example 58, 4-[({5-[(8-{[(2R)-2-hydroxy-2-(8-hydroxy-2-oxo-1,2-dihydroquinolin-5-yl)ethyl]amino}octyl)oxy]-2-phenylphenyl}carbamoyl)oxy]-1,1-dimethylpiperidin-1-ium trifluoroacetate] | 46.4 nM | 0.6 nM
8 | C[N+]1(C)CCC(OC(=O)Nc2cc(CCCCOc3ccc(CNC[C@H](O)c4ccc(O)c5[nH]c(=O)ccc45)cc3)ccc2-c2ccccc2)CC1 [Example 61, 4-{[(5-{4-[4-({[(2R)-2-hydroxy-2-(8-hydroxy-2-oxo-1,2-dihydroquinolin-5-yl)ethyl]amino}methyl)phenoxy]butyl}-2-phenylphenyl)carbamoyl]oxy}-1,1-dimethylpiperidin-1-ium trifluoroacetate] | 37.8 nM | 8.7 nM
9 | C[N+]1(C)CCC(OC(=O)Nc2cc(CCC(=O)Nc3ccc(CCCNC[C@H](O)c4ccc(O)c5[nH]c(=O)ccc45)cc3)ccc2-c2ccccc2)CC1 [Example 62, 4-({[5-(2-{[4-(3-{[(2R)-2-hydroxy-2-(8-hydroxy-2-oxo-1,2-dihydroquinolin-5-yl)ethyl]amino}propyl)phenyl]carbamoyl}ethyl)-2-phenylphenyl]carbamoyl}oxy)-1,1-dimethylpiperidin-1-ium trifluoroacetate] | 51.3 nM | 1.5 nM
10 | C[N+]1(C)CCC(OC(=O)Nc2cc(CCC(=O)Nc3ccc(CCNC[C@H](O)c4ccc(O)c5[nH]c(=O)ccc45)cc3)ccc2-c2ccccc2)CC1 [Example 63, 4-({[5-(2-{[4-(2-{[(2R)-2-hydroxy-2-(8-hydroxy-2-oxo-1,2-dihydroquinolin-5-yl)ethyl]amino}ethyl)phenyl]carbamoyl}ethyl)-2-phenylphenyl]carbamoyl}oxy)-1,1-dimethylpiperidin-1-ium trifluoroacetate] | 41.7 nM | 5.6 nM
11 | C[N+]1(C)CCC(OC(=O)Nc2ccc(CCC(=O)Nc3ccc(CNC[C@H](O)c4ccc(O)c5[nH]c(=O)ccc45)cc3)cc2-c2ccccc2)CC1 [Example 69, 4-({[4-(2-{[4-({[(2R)-2-hydroxy-2-(8-hydroxy-2-oxo-1,2-dihydroquinolin-5-yl)ethyl]amino}methyl)phenyl]carbamoyl}ethyl)-2-phenylphenyl]carbamoyl}oxy)-1,1-dimethylpiperidin-1-ium trifluoroacetate] | 44.7 nM | 16 nM
12 | COc1cc(NC(=O)CCCc2ccc(NC(=O)O[C@@H]3C[C@@H]4[C@H]5O[C@H]5[C@H](C3)[N+]4(C)C)c(-c3ccccc3)c2)c(Br)cc1CNC[C@H](O)c1ccc(O)c2[nH]c(=O)ccc12 [Example 70, (1R,2R,4S,5S,7S)-7-({[4-(3-{[2-bromo-4-({[(2R)-2-hydroxy-2-(8-hydroxy-2-oxo-1,2-dihydroquinolin-5-yl)ethyl]amino}methyl)-5-methoxyphenyl]carbamoyl}propyl)-2-phenylphenyl]carbamoyl}oxy)-9,9-dimethyl-3-oxa-9-azatricyclo[3.3.1.0^2,4]nonan-9-ium trifluoroacetate] | 60.3 nM | 0.2 nM
13 | C[N+]1(C)[C@@H]2C[C@@H](OC(=O)Nc3ccc(CCCC(=O)Nc4ccc(CNC[C@H](O)c5ccc(O)c6[nH]c(=O)ccc56)cc4Cl)cc3-c3ccccc3)C[C@H]1[C@@H]1O[C@@H]12 [Example 71, (1R,2R,4S,5S,7S)-7-({[4-(3-{[2-chloro-4-({[(2R)-2-hydroxy-2-(8-hydroxy-2-oxo-1,2-dihydroquinolin-5-yl)ethyl]amino}methyl)phenyl]carbamoyl}propyl)-2-phenylphenyl]carbamoyl}oxy)-9,9-dimethyl-3-oxa-9-azatricyclo[3.3.1.0^2,4]nonan-9-ium trifluoroacetate] | 38.9 nM | 0.2 nM
14 | C[N+]1(C)[C@@H]2C[C@@H](OC(=O)Nc3ccc(CCCC(=O)Nc4ccc(CNC[C@H](O)c5ccc(O)c6[nH]c(=O)ccc56)cc4Br)cc3-c3ccccc3)C[C@H]1[C@@H]1O[C@@H]12 [Example 72, (1R,2R,4S,5S,7S)-7-({[4-(3-{[2-bromo-4-({[(2R)-2-hydroxy-2-(8-hydroxy-2-oxo-1,2-dihydroquinolin-5-yl)ethyl]amino}methyl)phenyl]carbamoyl}propyl)-2-phenylphenyl]carbamoyl}oxy)-9,9-dimethyl-3-oxa-9-azatricyclo[3.3.1.0^2,4]nonan-9-ium trifluoroacetate] | 49 nM | 0.3 nM
15 | C[N+]1(C)[C@@H]2CC(OC(=O)Nc3cc(CCC(=O)Nc4ccc(CCCNC[C@H](O)c5ccc(O)c6[nH]c(=O)ccc56)cc4)ccc3-c3ccccc3)C[C@H]1[C@@H]1O[C@@H]12 (stereo partly drawn) [Example 73, (1R,2R,4S,5S,7S)-7-({[5-(2-{[4-(3-{[(2R)-2-hydroxy-2-(8-hydroxy-2-oxo-1,2-dihydroquinolin-5-yl)ethyl]amino}propyl)phenyl]carbamoyl}ethyl)-2-phenylphenyl]carbamoyl}oxy)-9,9-dimethyl-3-oxa-9-azatricyclo[3.3.1.0^2,4]nonan-9-ium trifluoroacetate] | 27.5 nM | 10 nM
16 | C[N+]1(C)CCC(OC(=O)Nc2cc(CCCCCCCCCNC[C@H](O)c3ccc(O)c4[nH]c(=O)ccc34)ccc2-c2ccccc2)CC1 [Example 76, 4-({[5-(9-{[(2R)-2-hydroxy-2-(8-hydroxy-2-oxo-1,2-dihydroquinolin-5-yl)ethyl]amino}nonyl)-2-phenylphenyl]carbamoyl}oxy)-1,1-dimethylpiperidin-1-ium trifluoroacetate] | 38 nM | 14.1 nM
17 | C[N+]1(C)CCC(OC(=O)Nc2cc(CCCOCCCCCNC[C@H](O)c3ccc(O)c4[nH]c(=O)ccc34)ccc2-c2ccccc2)CC1 [Example 78, 4-{[(5-{3-[(5-{[(2R)-2-hydroxy-2-(8-hydroxy-2-oxo-1,2-dihydroquinolin-5-yl)ethyl]amino}pentyl)oxy]propyl}-2-phenylphenyl)carbamoyl]oxy}-1,1-dimethylpiperidin-1-ium trifluoroacetate] | 74.1 nM | 1.3 nM
